# According to ChEMBL document CHEMBL1144728, “Pyrazolo-pyrimidines: a novel heterocyclic scaffold for potent and selective p38 alpha inhibitors” (Bioorg Med Chem Lett, 2008):
# Key:
# Liver microsomes [1] = test: Metabolic stability in human liver microsomes assessed as metabolic rate per mg of protein; assay type: ADME, Microsome
# Liver microsomes [2] = test: Metabolic stability in rat liver microsomes assessed as metabolic rate per mg of protein; assay type: ADME, Microsome
# [3] = Oral bioavailability in mouse at 10 mg/kg; assay type: ADME, organism-based; conditions: in vivo
# [4] = Clearance in mouse at 10 mg/kg, po; assay type: ADME, organism-based; design: dose 10 mg/kg, route oral; conditions: in vivo
# Mus musculus = test: Volume of distribution in mouse at 10 mg/kg, po; assay type: ADME, organism-based; design: dose 10 mg/kg, route oral; conditions: in vivo
# [5] = Terminal half life in mouse at 10 mg/kg, po; assay type: ADME, organism-based; design: dose 10 mg/kg, route oral; conditions: in vivo
compound,measurement,setting,value
Cc1ccc(C(=O)Nc2ccon2)cc1Nc1ncnc2c1cnn2-c1ccccc1,Stability,Liver microsomes [1],0 nmol/min
same,Stability,Liver microsomes [2],0.005 nmol/min/mg
same,bioavailability,[3],60%
same,CL/F,[4],5 mL/min/kg
same,Vd,Mus musculus,1.3 L/kg
same,half-life,[5],246 min
